Test results: US20110086759A1, “CHEMICAL COMPOUNDS” (SYNGENTA CROP PROTECTION, INC., priority 2007, published 2011)

How the values were obtained:
[1] = tested on: Amaranthus retoflexus (AMARE); assay: Post-emergence biological efficacy, glasshouse pot test; type: in vivo; settings: Amaranthus retroflexus, 312 h
In short: (§1)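 Scored 13 days after spraying on a 0 (no damage) to 100 (total damage) scale. Treatment was a post-emergence spray at 1000 or 250 g/ha, from acetone/water 50:50 plus 0.5% Tween 20, onto 8-day-old plants in soil pots. Growth at 24/16° C, 14 h photoperiod, 65% humidity, watered twice daily.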

[2] = tested on: Echinochloa crus-galli (ECHCG); assay: as above; type: in vivo; settings: 312 h
In short: as §1

[3] = tested on: Ipomea hederaceae (IPOHE); assay: as above; type: in vivo; settings: Ipomoea hederacea, 312 h
In short: as §1

Setaria faberi (SETFA) [4] = assay: as above; type: in vivo; settings: 312 h
In short: as §1

[5] = tested on: Alopecurus myosuroides (ALOMY); assay: as above; type: in vivo; settings: 312 h
In short: as §1

Solanum nigrum (SOLNI) [6] = assay: as above; type: in vivo; settings: 312 h
In short: as §1

[7] = tested on: Amaranthus retoflexus (AMARE); assay: Pre-emergence biological efficacy, glasshouse pot test; type: in vivo; settings: Amaranthus retroflexus, 312 h
In short: (§2)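 Damage was rated on a 0–100 scale 13 days after treatment, with plants kept at 24/16° C, 14 h light and 65% humidity. The pre-emergence spray, at 1000 or 250 g/ha in acetone/water 50:50 with 0.5% Tween 20, was applied one day after sowing.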

[8] = tested on: Echinochloa crus-galli (ECHCG); assay: as above; type: in vivo; settings: 312 h
In short: as §2

[9] = tested on: Ipomea hederaceae (IPOHE); assay: as above; type: in vivo; settings: Ipomoea hederacea, 312 h
In short: as §2

Setaria faberi (SETFA) [10] = assay: as above; type: in vivo; settings: 312 h
In short: as §2

[11] = tested on: Alopecurus myosuroides (ALOMY); assay: as above; type: in vivo; settings: 312 h
In short: as §2

Solanum nigrum (SOLNI) [12] = assay: as above; type: in vivo; settings: 312 h
In short: as §2

[13] = Rate 1,000 g/ha, post-emergence spray, evaluated after 13 days (100=total damage to plant; 0=no damage to plant), read-out: Percentage damage caused to weed species, post-emergence, AMARE
[14] = Rate 1,000 g/ha, post-emergence spray, evaluated after 13 days (100=total damage to plant; 0=no damage to plant), read-out: Percentage damage caused to weed species, post-emergence, ECHCG
[15] = Rate 1,000 g/ha, post-emergence spray, evaluated after 13 days (100=total damage to plant; 0=no damage to plant), read-out: Percentage damage caused to weed species, post-emergence, IPOHE
[16] = Rate 1,000 g/ha, post-emergence spray, evaluated after 13 days (100=total damage to plant; 0=no damage to plant), read-out: Percentage damage caused to weed species, post-emergence, SETFA
[17] = Rate 1,000 g/ha, post-emergence spray, evaluated after 13 days (100=total damage to plant; 0=no damage to plant), read-out: Percentage damage caused to weed species, post-emergence, ALOMY
[18] = Rate 1,000 g/ha, post-emergence spray, evaluated after 13 days (100=total damage to plant; 0=no damage to plant), read-out: Percentage damage caused to weed species, post-emergence, SOLNI
[19] = pre-emergence, rate 1,000 g/ha, evaluated after 13 days (100=total damage to plant; 0=no damage), read-out: Percentage damage caused to weed species, AMARE
[20] = pre-emergence, rate 1,000 g/ha, evaluated after 13 days (100=total damage to plant; 0=no damage), read-out: Percentage damage caused to weed species, ECHCG
[21] = pre-emergence, rate 1,000 g/ha, evaluated after 13 days (100=total damage to plant; 0=no damage), read-out: Percentage damage caused to weed species, IPOHE
[22] = pre-emergence, rate 1,000 g/ha, evaluated after 13 days (100=total damage to plant; 0=no damage), read-out: Percentage damage caused to weed species, SETFA
[23] = pre-emergence, rate 1,000 g/ha, evaluated after 13 days (100=total damage to plant; 0=no damage), read-out: Percentage damage caused to weed species, ALOMY
[24] = pre-emergence, rate 1,000 g/ha, evaluated after 13 days (100=total damage to plant; 0=no damage), read-out: Percentage damage caused to weed species, SOLNI

Compound: COC(=O)c1nc(-c2ccc(Cl)cc2)nc(NCc2ccco2)c1Cl [Compound 40-125, 5-chloro-2-(4-chlorophenyl)-4-(furan-2-ylmethylamino)-6-methoxycarbonylpyrimidine]
- melting point: 132 to 134 °C
- pest or weed control at 1000 g/ha [1, 13]: 100%
- pest or weed control at 1000 g/ha [2, 14]: 70%
- pest or weed control at 1000 g/ha [3, 15]: 90%
- pest or weed control at 1000 g/ha (Setaria faberi (SETFA) [4]; [16]): 90%
- pest or weed control at 1000 g/ha [5, 17]: 50%
- pest or weed control at 1000 g/ha (Solanum nigrum (SOLNI) [6]; [18]): 90%
- pest or weed control at 1000 g/ha [7, 19]: 100%
- pest or weed control at 1000 g/ha [8, 20]: 50%
- pest or weed control at 1000 g/ha [9, 21]: 20%
- pest or weed control at 1000 g/ha (Setaria faberi (SETFA) [10]; [22]): 40%
- pest or weed control at 1000 g/ha [11, 23]: 40%
- pest or weed control at 1000 g/ha (Solanum nigrum (SOLNI) [12]; [24]): 80%

Compound: C=Cc1c(NCc2ccco2)nc(C2CC2)nc1C(=O)OC [Compound 31-125, 2-cyclopropyl-5-ethenyl-4-(furan-2-ylmethylamino)-6-methoxycarbonylpyrimidine]
- melting point: 85 to 86 °C
- pest or weed control at 1000 g/ha [1, 13]: 90%
- pest or weed control at 1000 g/ha [2, 14]: 0%
- pest or weed control at 1000 g/ha [3, 15]: 50%
- pest or weed control at 1000 g/ha (Setaria faberi (SETFA) [4]; [16]): 10%
- pest or weed control at 1000 g/ha [5, 17]: 10%
- pest or weed control at 1000 g/ha (Solanum nigrum (SOLNI) [6]; [18]): 80%
- pest or weed control at 1000 g/ha [7, 19]: 90%
- pest or weed control at 1000 g/ha [8, 20]: 20%
- pest or weed control at 1000 g/ha [9, 21]: 100%
- pest or weed control at 1000 g/ha (Setaria faberi (SETFA) [10]; [22]): 20%
- pest or weed control at 1000 g/ha [11, 23]: 20%
- pest or weed control at 1000 g/ha (Solanum nigrum (SOLNI) [12]; [24]): 80%

Compound: NC(=O)c1nc(C2CC2)nc(NCc2ccco2)c1Cl [Compound 201-125, 6-aminocarbonyl-5-chloro-2-cyclopropyl-4-(furan-2-ylmethylamino)-pyrimidine]
- melting point: 126 to 128 °C
- pest or weed control at 1000 g/ha [1, 13]: 90%
- pest or weed control at 1000 g/ha [2, 14]: 20%
- pest or weed control at 1000 g/ha [3, 15]: 70%
- pest or weed control at 1000 g/ha (Setaria faberi (SETFA) [4]; [16]): 50%
- pest or weed control at 1000 g/ha [5, 17]: 20%
- pest or weed control at 1000 g/ha (Solanum nigrum (SOLNI) [6]; [18]): 90%
- pest or weed control at 1000 g/ha [7, 19]: 70%
- pest or weed control at 1000 g/ha [8, 20]: 0%
- pest or weed control at 1000 g/ha [9, 21]: 40%
- pest or weed control at 1000 g/ha (Setaria faberi (SETFA) [10]; [22]): 0%
- pest or weed control at 1000 g/ha [11, 23]: 20%
- pest or weed control at 1000 g/ha (Solanum nigrum (SOLNI) [12]; [24]): 70%

Compound: COC(=O)c1nc(Cl)nc(NCc2ccco2)c1Cl [Compound 207-48, 2,5-dichloro-4-(furan-2-ylmethylamino)-6-methoxy carbonylpyrimidine]
- melting point: 110 to 112 °C
- pest or weed control at 1000 g/ha [1, 13]: 30%
- pest or weed control at 1000 g/ha [2, 14]: 10%
- pest or weed control at 1000 g/ha [3, 15]: 30%
- pest or weed control at 1000 g/ha (Setaria faberi (SETFA) [4]; [16]): 10%
- pest or weed control at 1000 g/ha [5, 17]: 10%
- pest or weed control at 1000 g/ha (Solanum nigrum (SOLNI) [6]; [18]): 60%
- pest or weed control at 1000 g/ha [7, 19]: 30%
- pest or weed control at 1000 g/ha [8, 20]: 10%
- pest or weed control at 1000 g/ha [9, 21]: 40%
- pest or weed control at 1000 g/ha (Setaria faberi (SETFA) [10]; [22]): 20%
- pest or weed control at 1000 g/ha [11, 23]: 20%
- pest or weed control at 1000 g/ha (Solanum nigrum (SOLNI) [12]; [24]): 40%

Compound: O=C(O)c1nc(C2CC2)nc(NCc2ccco2)c1Cl [Compound 1-125, 5-chloro-2-cyclopropyl-4-(furan-2-ylmethylamino)-pyrimidine-6-carboxylic acid]
- melting point: 150 to 152 °C
- pest or weed control at 1000 g/ha ([1]; post-emergence, 1,000 g/ha, evaluated after 13 days (100=total damage; 0=no damage), read-out: Percentage damage caused to weed species, AMARE): 100%
- pest or weed control at 1000 g/ha ([2]; post-emergence, 1,000 g/ha, evaluated after 13 days (100=total damage; 0=no damage), read-out: Percentage damage caused to weed species, ECHCG): 70%
- pest or weed control at 1000 g/ha ([3]; post-emergence, 1,000 g/ha, evaluated after 13 days (100=total damage; 0=no damage), read-out: Percentage damage caused to weed species, IPOHE): 100%
- pest or weed control at 1000 g/ha (Setaria faberi (SETFA) [4]; post-emergence, 1,000 g/ha, evaluated after 13 days (100=total damage; 0=no damage), read-out: Percentage damage caused to weed species, SETFA): 90%
- pest or weed control at 1000 g/ha ([5]; post-emergence, 1,000 g/ha, evaluated after 13 days (100=total damage; 0=no damage), read-out: Percentage damage caused to weed species, ALOMY): 60%
- pest or weed control at 1000 g/ha (Solanum nigrum (SOLNI) [6]; post-emergence, 1,000 g/ha, evaluated after 13 days (100=total damage; 0=no damage), read-out: Percentage damage caused to weed species, SOLNI): 100%
- pest or weed control at 1000 g/ha ([7]; pre-emergence, 1,000 g/ha, evaluated after 13 days (100=total damage; 0=no damage), read-out: Percentage damage AMARE): 100%
- pest or weed control at 1000 g/ha ([8]; pre-emergence, 1,000 g/ha, evaluated after 13 days (100=total damage; 0=no damage), read-out: Percentage damage ECHCG): 80%
- pest or weed control at 1000 g/ha ([9]; pre-emergence, 1,000 g/ha, evaluated after 13 days (100=total damage; 0=no damage), read-out: Percentage damage IPOHE): 100%
- pest or weed control at 1000 g/ha (Setaria faberi (SETFA) [10]; pre-emergence, 1,000 g/ha, evaluated after 13 days (100=total damage; 0=no damage), read-out: Percentage damage SETFA): 70%
- pest or weed control at 1000 g/ha ([11]; pre-emergence, 1,000 g/ha, evaluated after 13 days (100=total damage; 0=no damage), read-out: Percentage damage ALOMY): 60%
- pest or weed control at 1000 g/ha (Solanum nigrum (SOLNI) [12]; pre-emergence, 1,000 g/ha, evaluated after 13 days (100=total damage; 0=no damage), read-out: Percentage damage SOLNI): 100%

Compound: COC(=O)c1nc(Cl)nc(NCC2CC2)c1Cl [Compound 207-31, 4-Cyclopropylmethyl-amino-2,5-dichloro-6-methoxycarbonyl-pyrimidine]
- pest or weed control at 1000 g/ha [1, 13]: 50%
- pest or weed control at 1000 g/ha [2, 14]: 0%
- pest or weed control at 1000 g/ha [3, 15]: 10%
- pest or weed control at 1000 g/ha (Setaria faberi (SETFA) [4]; [16]): 40%
- pest or weed control at 1000 g/ha [5, 17]: 10%
- pest or weed control at 1000 g/ha (Solanum nigrum (SOLNI) [6]; [18]): 60%
- pest or weed control at 1000 g/ha [7, 19]: 20%
- pest or weed control at 1000 g/ha [8, 20]: 0%
- pest or weed control at 1000 g/ha [9, 21]: 0%
- pest or weed control at 1000 g/ha (Setaria faberi (SETFA) [10]; [22]): 0%
- pest or weed control at 1000 g/ha [11, 23]: 0%
- pest or weed control at 1000 g/ha (Solanum nigrum (SOLNI) [12]; [24]): 10%
